Measurements as given in patent US20240317792A1, “CYCLIC DINUCLEOTIDE METAL COMPOUND, AND PREPARATION AND APPLICATION THEREOF” (HANGZHOU XINGAO BIOTECHNOLOGY CO., LTD., priority 2022, published 2024).

Tests used:
[1] = tested on: ICR mice with ischemic cerebrovascular injury; assay: MCAO ischemic cerebrovascular injury model, Zea longa behavioral score; assay type: in vivo; parameters: key: Zea longa: 0 = no neurological deficit, 4 = no spontaneous walking; conditions: 10 mg/kg intraperitoneal, Zea longa 5-point score
Description: Experimental animals: healthy male Institute of Cancer Research (ICR) mice, weighing 18-20 grams, purchased from Shanghai SLAC Laboratory Animal Co. Ltd, with quality certificate No. (SCXK (Shanghai) 2007-0005), and kept in clean animal houses.
Mouse model: an ischemic cerebrovascular injury model was prepared by a middle cerebral artery occlusion (MCAO) method to verify therapeutic effect of the cyclic dinucleotide metal compounds on ischemic cerebrovascular diseases in the experimental animals.
Experimental method: the ICR mice were anesthetized with 10 wt. % of chloral hydrate by intraperitoneal injection, a mid-cervical incision was made to isolate and ligate a proximal segment, a carotid artery and a branch vessel of a right common carotid artery. A right internal carotid artery was isolated, a pterygoid artery was isolated down along the right internal carotid artery followed by root ligation. A wire was prepared on the proximal segment, and an arterial clip was placed on a distal segment. An incision was made at a branch of the right common carotid artery, and a nylon wire was tied in. A monofilament entered the internal carotid artery, a cranium to an anterior cerebral artery to block all sources of blood flow in a middle cerebral artery. The arterial clip was removed, and the wire prepared on the proximal segment was tied in followed by skin suture. The experimental animals were subjected to cage culture after operation. 2 h after the ischemia, the experimental animals were subjected to abdominal administration by injection, and the nylon wire was removed for reperfusion. 8 h after the reperfusion, the experimental animals were subjected to re-administration. After the operation, behavioral score was performed using a single-blind method with reference to the Zea longa 5-point scoring system, which was shown as follows: 0 point, normal performance with no neurological deficits; 1 point, contralateral forepaws could not fully extend; 2 points, circling to the opposite side when walking; 3 points, falling to the opposite side; 4 points, no spontaneous walking and loss of consciousness.
In the experiment, the ICR mice were divided into 7 groups (10 mice in each group). The 7 groups were listed as follows: A: AD model group, as a negative control group (administration: normal saline); B: cGAMP group, as a positive control group (administration: cyclic dinucleotide); C: [Li2(cGAMP)] group (administration: lithium cyclic dinucleotide prepared in Example 1); D: [Mg(cGAMP)] group (administration: magnesium cyclic dinucleotide prepared in Example 2); E: [Zn(cGAMP)] group (administration: zinc cyclic dinucleotide prepared in Example 5); F: [Mn(cGAMP)] group (administration: manganese cyclic dinucleotide prepared in Example 3); G: [Fe(cGAMP)] group (administration: ferrous cyclic dinucleotide prepared in Example 4); where a preparation method for administration in groups C-G were as follows. Powders prepared in the groups C-G were prepared to solutions of required concentration with normal saline. The administration dosage of every group was 10 mg/kg. And the ICR mice were administered by intraperitoneal injection. The ICR mice were administered once after 2 h of ischemia, then the nylon wire was removed for reperfusion. 8 h after the reperfusion, the ICR mice were administered once. After 24 h, the ICR mice were administered once a day for 7 consecutive days.

[2] = tested on: mouse breast cancer cell line 4T1; assay: Subcutaneously transplanted 4T1 tumor growth inhibition; assay type: in vivo, BALB/c ordinary mice; conditions: 4T1 in BALB/c mice; 10 mg/kg intraperitoneal once every 2 days for 20 days
Text: Experimental animals: BALB/c ordinary mice and C57BL/6 ordinary mice, male, weighing 20-22 grams, 7-8 weeks old, purchased from Shanghai SLAC Laboratory Animal Co. Ltd.
Tumour cell line: mouse colorectal cancer cell line CT26 and mouse breast cancer cell line 4T1, both purchased from Chinese Academy of Sciences Cell Bank.
Establishment and intervention of tumor model mice: cells were subjected to culture and subculture, collected in a logarithmic phase and prepared as 1.0×10^7/mL of cell suspension. 0.2 mL of the cell suspension was injected armpits of forelegs of the mice (with a cell number of 2.0×10^6), and tumor transplantation was successful in about 7 days. Mice with successful tumor transplantation were randomly divided into 7 groups (10 mice in each group). The 7 groups were listed as follows: A: negative control group (injection with normal saline); B: positive control cGAMP group (10 mg/kg of injection); C: [Li2(cGAMP)] group (10 mg/kg of injection); D: [Mg(cGAMP)] group (10 mg/kg of injection); E: [Zn(cGAMP)] group (10 mg/kg of injection); F: [Mn(cGAMP)] group (10 mg/kg of injection); and G: [Fe(cGAMP)] group (10 mg/kg of injection). The mice with successful tumor transplantation were subjected to administration by intraperitoneal injection with a volume of 200 μL per mice once every 2 days for 20 days. After 20 days, the mice with successful tumor transplantation were killed, and the tumor were weighed. A formula of inhibitory rate of tumor was as represented as inhibitory rate of tumor=[1−average tumor weight of experimental group/average tumor weight of the negative control group]×100%.
According to the establishment of tumor model mice, the mouse colorectal cancer cell line CT26 was cultured and transplanted to the BALB/c ordinary mice, and the mouse breast cancer cell line 4T1 was cultured and transplanted to the BALB/c ordinary mice.
Statistical analysis: data was expressed as mean±standard deviation and processed by the SPSS10.0 software. One-way ANOVA was used to detect and compare significance of tumor weights in each group.

[3] = tested on: IFN-β; assay: IFN-β content in blood induced by the compounds, over time by ELISA; assay type: in vivo; conditions: SD mice serum, sampled 0-24 h, peak of concentration change curve
Description: Experimental animals: SD mice, weighing 200-220 g, were purchased from Shanghai SLAC Laboratory Animal Co. Ltd.
Main test steps: The SD mice were randomly divided into 7 groups (10 mice in each group). The 7 groups were listed as follows: blank control group (injection of normal saline); cGAMP group; [Li2(cGAMP)] group; [Mg(cGAMP)] group; [Zn(cGAMP)] group; [Mn(cGAMP)] group; and [Fe(cGAMP)] group. At fixed time points (0 h, 1 h, 2 h, 4 h, 6 h, 8 h, 10 h, 12 h, 14 h, 16 h, 20 h, and 24 h), 1 mL of blood of each of the SD mice was taken through ophthalmic vein by a capillary, placed in a 1.5 mL of centrifuge tube followed by centrifugation for 30 min. Upper serum was collected and stored at −80° C. for use. Concentrations of cGAMP and IFN-β in the serum were determined by ELISA kit. Based on IFN-β induced by activation of innate immunity paths of the cGAMP and the cyclic dinucleotide metal compounds, a content of the IFN-β in the blood was detected, and stability and activation activity of immune path of the cGAMP and the cyclic dinucleotide metal compounds were evaluated. Concentration values (including cGAMP and IFN-β) in blood samples of the SD mice in each group were detected by the ELISA kit, and the concentration values and average values at each time point were calculated. A concentration change curve over time was drawn, and a peak of the concentration change curve was obtained.

## Nc1nc2c(ncn2[C@@H]2O[C@@H]3COP(=O)([O-])O[C@H]4[C@@H](O)[C@H](n5cnc6c(N)ncnc65)O[C@@H]4COP(=O)([O-])O[C@@H]2[C@@H]3O)c(=O)[nH]1.[Zn+2] [[Zn(cGAMP)], zinc cyclic dinucleotide]
[1]
  Score (7 h after operation): 1.31 ± 0.15
  Score (24 h after operation): 1.57 ± 0.38
[2]
  Average inhibitory rate of tumor: 89.1%
  Average tumor weight: 0.212 ± 0.135 g
[3]
  Time to peak serum IFN-β concentration: 6.2 h

## Nc1nc2c(ncn2C2OC3COP(=O)([O-])OC4C(COP(=O)([O-])OC2C3O)OC(n2cnc3c(N)ncnc32)C4O)c(=O)[nH]1.[Fe+2] (stereo not drawn) [[Fe(cGAMP)], ferrous cyclic dinucleotide]
[1]
  Score (7 h after operation): 1.41 ± 0.29
  Score (24 h after operation): 1.67 ± 0.35
[2]
  Average inhibitory rate of tumor: 83.6%
  Average tumor weight: 0.301 ± 0.116 g
[3]
  Time to peak serum IFN-β concentration: 5.6 h

## Nc1nc2c(ncn2[C@@H]2O[C@@H]3COP(=O)([O-])O[C@H]4[C@@H](O)[C@H](n5cnc6c(N)ncnc65)O[C@@H]4COP(=O)([O-])O[C@@H]2[C@@H]3O)c(=O)[nH]1.[Li+].[Li+] [[Li2(cGAMP)], lithium cyclic dinucleotide]
[1]
  Score (7 h after operation): 1.49 ± 0.26
  Score (24 h after operation): 1.82 ± 0.19
[2]
  Average inhibitory rate of tumor: 61.5%
  Average tumor weight: 0.712 ± 0.146 g
[3]
  Time to peak serum IFN-β concentration: 5.6 h

## Nc1nc2c(ncn2[C@@H]2O[C@@H]3COP(=O)(O)O[C@H]4[C@@H](O)[C@H](n5cnc6c(N)ncnc65)O[C@@H]4COP(=O)(O)O[C@@H]2[C@@H]3O)c(=O)[nH]1 [cGAMP, 2′3′-cGAMP, reference compound]
[1]
  Score (7 h after operation): 1.67 ± 0.41
  Score (24 h after operation): 2.15 ± 0.32
[2]
  Average inhibitory rate of tumor: 58.8%
  Average tumor weight: 0.761 ± 0.157 g
[3]
  Time to peak serum IFN-β concentration: 4.0 h

## Nc1nc2c(ncn2[C@@H]2O[C@@H]3COP(=O)([O-])O[C@H]4[C@@H](O)[C@H](n5cnc6c(N)ncnc65)O[C@@H]4COP(=O)([O-])O[C@@H]2[C@@H]3O)c(=O)[nH]1.[Mg+2] [[Mg(cGAMP)], magnesium cyclic dinucleotide]
[1]
  Score (7 h after operation): 1.09 ± 0.18
  Score (24 h after operation): 1.18 ± 0.24
[2]
  Average inhibitory rate of tumor: 63.2%
  Average tumor weight: 0.679 ± 0.183 g
[3]
  Time to peak serum IFN-β concentration: 5.9 h

## Nc1nc2c(ncn2C2OC3COP(=O)([O-])OC4C(COP(=O)([O-])OC2C3O)OC(n2cnc3c(N)ncnc32)C4O)c(=O)[nH]1.[Mn+2] (stereo not drawn) [[Mn(cGAMP)], manganese cyclic dinucleotide]
[1]
  Score (7 h after operation): 1.38 ± 0.27
  Score (24 h after operation): 1.62 ± 0.39
[2]
  Average inhibitory rate of tumor: 84.9%
  Average tumor weight: 0.287 ± 0.116 g
[3]
  Time to peak serum IFN-β concentration: 6.0 h
